From patent EP0101944A1, “Immunomodulators containing as the active ingredient alpha-benzyl malic acid” (MICROBIAL CHEMISTRY RESEARCH FOUNDATION, priority 1982, dated 1984) come the findings set out here.

In series [1] the test system is cell-mediated immunity. Description: Delayed-type hypersensitivity (D.T.H.) to sheep red blood cells, foot pad swelling in normal mice. The format is in vivo, CDF1 mice. The conditions noted are these: single dose; for Thickness of the foot pad: SRBC-sensitized female CDF1 mice, measured 24 h after challenge, control 8.6 ± 1.29; for % on the control's value: foot pad thickness, control = 100 %. As for the experimental part:
The action of &-benzyl malic acid on cell-mediated immunity was investigated using as its index the degree of delayed-type hypersensitivity (hereinafter referred to as D.T.H.) obtained by inoculating the foot pads of mice with sheep red blood cells (hereinafter referred to as SRBC) used as the antigen (Reference: J.Exp.Med. 139, 1529-1539, 1974).
A suspension of […] SRBCs in 0.05 ml of physiological saline solution was inoculated subcutaneously to the foot pad of one of the hind legs of CDF1 mice (female, 8 weeks old). Simultaneously, an aqueous solution containing 5, 0.5, 0.05 or 0.005 mg/kg of α-benzyl malic acid was administered intraperitoneally in a single dose. Four days after administration, a suspension of 10^8 SRBCs in 0.05 ml of physiological saline solution was subcutaneously administered to the foot pad of the other hind leg to induce secondary immune response. Twenty-four hours later, swelling on the foot pad (increased thickness of the foot pad) was measured with a calipers. The thickness of the foot pad in control animals, which had been sensitized with SRBCs and intraperitoneally administered physiological saline solution without having received the test compound, was evaluated to be 100 %. The thickness of the foot pad in the test animals that had been treated in the aforementioned way was compared with that in the control animals, thereby judging the cell-mediated immunity potentiating effect of the test compound.

Series [2] deals with cell-mediated immunity. Description: Picryl chloride ear swelling in cancer-inflicted (Ascites Sarcoma 180) mice. The format is in vivo, CDF1 mice. Particulars: for Increase in ear thickness: Sarcoma 180-bearing female CDF1 mice, picryl chloride, control 4.11 ± 1.11; for Rate to the control value: increase in ear thickness T/C, control = 100.0. An excerpt:
(Effect on cell-mediated immunity in cancer-inflicted mice; picryl chloride was used as the antigen)
10^6 cells of Ascites Sarcoma 180 were intraperitoneally transplanted to groups of 12-week-old female CDF1 mice (6 mice/group). The day of transplantation was designated as Day 0. On Day 1, a 6 % solution of picryl chloride in ethanol was applied to a shaven skin (25 mm x 15 mm) of the abdomen with the use of a cut absorbent cotton (20 mm x 20 mm x 2 mm) impregnated with the solution to thereby sensitize the mice. On Day 8, both ears were measured for thickness with a dial gauge, to determine the baseline value (a).
Then, both ears were sensitized with a 20 mm x 4 mm x 1 mm cut absorbent cotton impregnated with a 1 % solution of picryl chloride in olive oil. On Day 9, both swollen ears were measured for their thickness with a dial gauge to obtain a value (b). The baseline value (a) was subtracted from the value (b) to determine the increase in ear thickness (b - a) for the control group (C).
On the other hand, 5.0, 0.5, 0.05 or 0.005 mg/kg of the test compound dissolved in physiological saline solution was orally administered once daily for 6 consecutive days between the day and 8 days after inoculation of Sarcoma 180. The mice were sensitized with picryl chloride in the same way as in the control group, and the thickness of the ears was similarly measured to determine the increase in ear thickness (b' - a') for the treatment group (T).
The rate of increase in ear thickness for the treatment group to that for the control group was calculated from the following equation: [formula] to determine the cell-mediated immunity modulating activity of the present compound.

The nature of series [3]: Acute toxicity test in mice. The format is in vivo. The conditions noted are these: i.v. dose of 500 mg/kg. An excerpt:
The present compound is therefore believed to be a safe substance.

[4] abbreviates: 0.005 mg/kg orally once daily for 6 consecutive days.
The mark [5] stands for this setting: 0.05 mg/kg orally once daily for 6 consecutive days.
The mark [6] stands for this setting: 0.5 mg/kg orally once daily for 6 consecutive days.
Setting [7] is: 5.0 mg/kg orally once daily for 6 consecutive days.

Turning to `O=C(O)CC(O)(Cc1ccccc1)C(=O)O` (stereo not drawn) [α-benzyl malic acid], the “Thickness of the foot pad” value turned out to be 11.8 ± 1.15 x 0.1 mm with cell-mediated immunity [1] (0.005 mg/kg intraperitoneally), 13.4 ± 1.61 x 0.1 mm in the series on cell-mediated immunity [1] (0.05 mg/kg intraperitoneally), 14.4 ± 1.52 x 0.1 mm in the series on cell-mediated immunity [1] (0.5 mg/kg intraperitoneally) and 12.8 ± 1.42 x 0.1 mm in the series on cell-mediated immunity [1] (5 mg/kg intraperitoneally). For the same compound, the “% on the control's value” with cell-mediated immunity [1] (0.005 mg/kg intraperitoneally) is recorded as 137%; with cell-mediated immunity [1] (0.05 mg/kg intraperitoneally), 156%; in the series on cell-mediated immunity [1] (0.5 mg/kg intraperitoneally), 167%; in the series with cell-mediated immunity [1] (5 mg/kg intraperitoneally) it was 149%. Further, the “Increase in ear thickness” value in the series on cell-mediated immunity [2] (setting [4]) is 5.18 ± 0.67 x 0.01 mm; with cell-mediated immunity [2] (setting [5]), 5.29 ± 0.33 x 0.01 mm; in the series with cell-mediated immunity [2] (0.05 mg/kg orally once daily for 6 consecutive days, listed as the present compound), 5.29 + 0.33 x 0.01 mm; with cell-mediated immunity [2] (setting [6]) it was 5.08 ± 0.56 x 0.01 mm; with cell-mediated immunity [2] (setting [7]), 4.71 ± 0.95 x 0.01 mm. Further, the “Rate to the control value” with cell-mediated immunity [2] (setting [4]) is 126.0%; in the series on cell-mediated immunity [2] (setting [5]), 128.7%; in the series with cell-mediated immunity [2] (setting [6]), 123.6%; with cell-mediated immunity [2] (setting [7]), 114.6%. Moreover, in series [3], the “deaths in acute toxicity tests” value is recorded as “no deaths”.

Take `CC(C)C[C@H](NC(=O)[C@@H](O)[C@H](N)Cc1ccccc1)C(=O)O` [Bestatin, [(2S,3R)-5-amino-2-hydroxy-4-phenyl-(S)-leucine], reference compound]: in the series with cell-mediated immunity [1] (0.5 mg/kg intraperitoneally), the “Thickness of the foot pad” value is given as 12.6 ± 1.12 x 0.1 mm and the “% on the control's value” stood at 147%.
